Results on 24 compounds are retold here after PubChem BioAssay (NCI).

Test in all cases: NCI tumour cell line growth inhibition, 48 h
Test [1] concerns HL-60(TB) leukemia.
The subject of test [2] is IGROV1 ovarian.
Test [3] deals with K-562 leukemia.
Test [4] has as its system M14 melanoma.
Test [5] has as its system OVCAR-8 ovarian.
Test [6] has as its system RPMI-8226 leukemia.
The subject of test [7] is SNB-75 CNS.
Test [8] has as its system TK-10 renal.
In test [9] the test system is HCC-2998 colon.
Test [10] concerns OVCAR-4 ovarian.

Each structure is given as a SMILES string.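 These data come from cells grown in 96-well plates and exposed to compound for 48 hours at five concentrations. GI50 = concentration required for 50% inhibition of growth. TGI is the concentration that stops growth completely.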

On to `COc1cc2c(cc1OC)C(Cl)C(c1ccc(Cl)cc1)=C2Cl` (configuration not stated), for which the TGI in test [1] amounted to 41 µM; in test [2], 48.3 µM; in test [3], 32.9 µM; in [4], 33.6 µM; in [5] it was 60.5 µM; in test [6] it was 45.6 µM. For the same compound, the TGI was 36.2 µM in test [7] and 43.4 µM in test [8].

Regarding `O=C(c1cc(Br)ccc1O)c1cc(Br)ccc1O`, the TGI in test [9] stood at 33.2 µM; in test [1] it was 44.1 µM; in [2] it was 27.8 µM; in test [3], 33.5 µM; in test [4], 29.1 µM; in test [10] it was 30.2 µM. The TGI in test [5] worked out at 32 µM; in test [6] it was 30.4 µM; in [7] it was 29.9 µM; in test [8] it was 33 µM.

On to `COc1ccc(CNc2nc(NCc3ccc(OC)cc3)nc(NC(C)C)n2)cc1`, for which the TGI in [9] is 64.8 µM; in test [1], 17.7 µM; in test [2], more than 100 µM; in test [3], more than 100 µM; in test [4] it was 16.7 µM; in test [10] it was more than 100 µM. Besides, the TGI is 33.6 µM in [5], 5.3 µM in test [6], more than 100 µM in test [7] and 70.4 µM in test [8].

Consider `c1ccc2c[n+](CCCCCCCCCC[n+]3ccc4ccccc4c3)ccc2c1`, for which the TGI in test [9], in test [1], in [2], in test [3], in [4] and in [10] was more than 10 µM throughout. Moreover, the TGI in [5], in test [6], in test [7] and in test [8] was more than 10 µM in each case.

For the compound `O=C(CSCC(=O)N/N=C/c1cccc(OCc2ccccc2)c1)N/N=C/c1cccc(OCc2ccccc2)c1`, the TGI in test [9] is more than 100 µM; in [1] it was 53.3 µM; in test [2], more than 100 µM; in test [3], more than 100 µM; in [4], more than 100 µM; in test [10], more than 100 µM. Besides, the TGI is more than 100 µM in [5], 39.9 µM in test [6], more than 100 µM in [7] and more than 100 µM in [8].

With `Cc1c2ccnc(-c3ccccc3)c2cc2c1[nH]c1ccccc12`, the TGI in test [9] was determined as 13.2 µM; in [1] it was 5.35 µM; in [2] it was 21.4 µM; in test [3], 5.38 µM; in test [10], 32.7 µM; in test [5], 7 µM. Moreover, the TGI is 8.25 µM in test [6] and 8.16 µM in test [7].

For the compound `C[C@@H]1CC[C@H]2C(COC/C=C/COCC3=C(C(F)(F)F)O[C@@H]4O[C@@]5(C)CC[C@H]6[C@H](C)CC[C@@H]3[C@@]46OO5)=C(C(F)(F)F)O[C@@H]3O[C@@]4(C)CC[C@@H]1[C@]32OO4`, the GI50 was 0.472 µM in test [9]; less than 0.01 µM in test [1]; 1.27 µM in test [2]; less than 0.0116 µM in test [3]; 0.518 µM in [10]; less than 0.0206 µM in [5]. The GI50 in test [6] was less than 0.01 µM; in [7], 12.7 µM; in [8], 0.036 µM. Also, the TGI was more than 100 µM in [9]; 0.0468 µM in [1]; 98.2 µM in [2]; more than 47 µM in test [3]; more than 100 µM in test [4]; more than 100 µM in [10]. For the same compound, the TGI in [5] is more than 32.6 µM; in test [6], more than 100 µM; in test [7], more than 100 µM; in test [8], more than 100 µM.

On to `C[n+]1cccc(/C=C/c2ccc3cccc(O)c3n2)c1`, for which the TGI is more than 100 µM in [9]; 82.3 µM in test [1]; more than 100 µM in test [2]; more than 100 µM in [3]; more than 100 µM in [4]; more than 100 µM in test [10]. The TGI in [5], in test [6], in test [7] and in [8] was more than 100 µM in each case.

For the compound `CCOC(=O)N1c2ccccc2S(=O)(=O)c2ccccc21`, the TGI in test [9], in test [1], in test [2], in test [3], in test [4] and in test [10] was more than 100 µM in each case. Also, the TGI in test [5] and in test [8] was more than 100 µM throughout.

Take `Cc1ccc(C)c(/C(=N\N=C(N)N)C2CC2)c1`: the TGI in test [9] was 35.4 µM; in test [2], more than 100 µM; in [3] it was 69.6 µM; in test [4] it was more than 100 µM; in [10] it was more than 100 µM; in test [5], more than 100 µM. The TGI in test [6], in test [7] and in test [8] was more than 100 µM each time.

With `CCOC(=O)c1c2c(c(O)c3ccccc3c(O)n(-c3ccc(C)cc3)c1C)C(=O)C=CC2=O`, the TGI was 36.9 µM in test [9]; 51.4 µM in test [1]; more than 100 µM in [2]; 47.2 µM in [3]; 44.8 µM in test [4]; 29.9 µM in test [10]. In addition, the TGI in [5] amounted to 41.3 µM; in test [6], 30.3 µM; in test [7] it was 43.6 µM; in test [8] it was 57.2 µM.

Turning to `Cc1ncc(CO)c(CN)c1O`, the TGI in test [9], in [1], in test [2], in test [3], in [4] and in test [10] was more than 100 µM each time. For the same compound, the TGI in test [5], in [6] and in [8] was more than 100 µM each time.

For the compound `CN(C)CCNC(=O)c1cccc2nc3c4ccccc4c4ccccc4c3nc12`, the TGI in test [9] was 11.5 µM; in test [1] it was 4.09 µM; in [2] it was 12.3 µM; in test [3], 3.57 µM; in test [4], 4.97 µM; in [10], 3.24 µM. In addition, the TGI amounted to 7.76 µM in test [5], 5.3 µM in test [6], 8.85 µM in test [7] and 9.86 µM in test [8].

In the case of `N=C(N)c1ccc(-c2ccc(-c3ccc(Cl)cn3)s2)cc1`, in test [4], the GI50 was 1.77 µM and the TGI amounted to 3.24 µM.

With `O=C(O)c1ccccn1`, the TGI in test [2], in test [3], in test [4], in test [10], in test [5] and in test [6] was more than 100 µM each time. Also, the TGI in [7] and in test [8] was more than 100 µM throughout.

Turning to `O=C(CC1(O)C(=O)Nc2ccc(Br)cc21)c1ccc(C(=O)NCC2CCC3(CC2)OOC2(CCCCC2)OO3)cc1` (configuration not stated), the GI50 in test [9] is 12.7 µM; in test [2] it was 1.52 µM; in [4], 8.68 µM; in test [10] it was 6.93 µM; in test [5] it was 4.57 µM; in test [6], 1.65 µM. For the same compound, the GI50 in [8] was 3.71 µM. In addition, the TGI in test [9] was 37.6 µM; in test [2], 11.6 µM; in test [4], 63.4 µM; in [10], 72.3 µM; in [5], more than 100 µM; in [6], 4.47 µM. In test [8], the TGI was found to be 11.9 µM.

For the compound `CN(C)c1ccc(C2CC(=O)C(C#N)=C(c3ccccc3)NN2C)cc1` (configuration not stated), the TGI in [9] was more than 100 µM; in test [1], 19.9 µM; in test [4], 35.5 µM; in [10], more than 100 µM; in test [6], more than 100 µM; in [7], 7.59 µM. This compound also registered a TGI in test [8] of more than 100 µM.

In the case of `CC(C)(C)C1CCC2(CC1)CCN(CCCN1CCOCC1)CC2`, the TGI in test [9] is 35.4 µM; in test [1], 41.8 µM; in [2], more than 100 µM; in test [3], 30.5 µM; in [4] it was 27.8 µM; in [10] it was more than 100 µM. The TGI is more than 100 µM in test [5], 63.8 µM in test [6], more than 52.4 µM in test [7] and more than 100 µM in [8].

Turning to `CC(C)CNc1nc(N)[nH]c(=O)c1NC=O`, the TGI in test [9], in [1], in test [2], in [3], in test [4] and in [10] was more than 100 µM in each case. Also, the TGI in test [5], in test [6], in test [7] and in [8] was more than 100 µM in each case.

For the compound `COc1cnc2c(c1)C(=O)c1c-2n(CCCN2CCNCC2)c(=O)c2cc(Cl)ccc12`, in test [10], the GI50 is 1.17 µM and the TGI was found to be 2.73 µM. In test [7], the GI50 was 0.291 µM and the TGI amounted to 1.69 µM.

As to `CN(C)[C@@H]1C(=O)C(C(=O)NCNCCCC(=O)O)=C(O)[C@@]2(O)C(=O)C3=C(O)c4c(O)cccc4[C@@](C)(O)[C@H]3C[C@@H]12`, the TGI in test [9], in [1], in test [2], in [3], in test [4] and in test [10] was more than 100 µM throughout. The TGI in [5], in [6] and in test [8] was more than 100 µM in each case.

Take `COc1cc2ccc1-c1cc(ccc1O)CC1c3cc4c(cc3CCN1C)Oc1c(OC)cc3c(c1O4)C(C2)N(C)CC3` (configuration not stated): the TGI in [9] turned out to be 3.06 µM; in [1], 4.53 µM; in [2] it was 4.35 µM; in test [3] it was 3.27 µM; in [4], 3.32 µM; in test [10], 3.72 µM. Besides, the TGI worked out at 4.75 µM in [6], 3.52 µM in test [7] and 24.7 µM in test [8].

On to `Oc1cc(O)cc(/C=C/c2ccc(O)c(O)c2)c1`, for which the TGI in test [9] was 34.4 µM; in test [1], more than 28.4 µM; in [2], 32.1 µM; in [3], more than 58.9 µM; in [10], more than 100 µM; in test [5], more than 100 µM. Also, the TGI is more than 93.8 µM in test [6] and 51.7 µM in [7].

`NCS(=O)(=O)O`: the TGI in test [9], in test [1], in test [2], in test [3], in test [4] and in test [10] was more than 100 µM throughout. In addition, the TGI in test [5], in test [6], in test [7] and in test [8] was more than 100 µM each time.
